Laboratory results from patent US20060100291A1, “Antibacterial compounds” (priority 2001, published 2006).
In brackets after ≈: the same amount, converted by molar mass. Entries after “also recorded” stand apart in the source; their conditions may differ. Like-named read-outs stand apart in the source and are kept apart here.

What was measured:
[1] = tested on: Bacillus subtilis (ATCC strain 19659); assay: Disc diffusion assay; type: cell-based; details: for BS activity: width of zone of growth inhibition / zone of inhibition at 60 µg/disc: disc assay dosed at 60 μg/disc, 24 h; for zone of inhibition at 60 µg/disc: read-out: BS activity: width of zone of growth inhibition
Method: The compounds of Examples 1 to 7 were also tested against another Gram-positive bacterium, Bacillus subtilis (ATCC strain 19659), in disc diffusion assays. […] The positive control in this assay was the clinically proven antimicrobial agent chloramphenicol (30 μg/disc), which gave a 12 mm zone.

[2] = tested on: Methicillin Resistant Staphylococcus aureus (MRSA) (strain 1126); assay: MIC in Mueller Hinton broth, serial doubling dilutions; type: cell-based
Method: Minimum inhibitory concentrations [MIC] were tested in Mueller Hinton [MH] broth. The human pathogen Methicillin Resistant Staphylococcus aureus (MRSA) (strain 1126) was provided by the University of Otago. Glass vials (30 mL) containing MH broth (10 mL) were inoculated from an actively growing culture and incubated overnight at 37° C. A standardized procedure to suspend each compound in MH broth was used. Each compound (5 mg) was dissolved in ethanol (1 mL). MH broth (9 mL) was then added to the ethanol containing the compound, resulting in stock solution concentrations of 500 μg /mL.
The MIC for each compound was determined by carrying out 3 replicate serial dilutions in Nunc® 48 well microtiter plates. To test the MICs, each compound stock solution was vigorously mixed before I mL was dispensed aseptically by pipette into 3 of the 6 first wells of a microtiter plate. MH broth (0.5 mL) was dispensed into all wells of the microtiter plate except the first row. Serial doubling dilutions were carried out through 12 wells (1½ microtiter plates). Mixing was carried out by repeated pipetting of 100 μL amounts. 500 μL was discarded from the last wells to conserve the […] compound concentration. Each well was inoculated with an aliquot (25 μL) of MRSA suspension diluted by 10^−2. All test and control microtiter plates were incubated at 37° C. and read after 48 h and 72 h.

[3] = background statement, organism not given; cited from earlier work
[4] = tested on: Swiss male mice (Mus musculus); assay: Acute toxicity in mice, intraperitoneal injection; type: in vivo; details: for acute toxic effects: ip in cottonseed oil, up to 400 mg/kg, observed 6 h plus 18 h
Method: Compound I has been tested in mice for acute toxicity.
A single trial was completed using twenty-five Swiss male mice (Mus musculus), weighing 20 g±2 g. Mice were selected by gender and weight, individually identified and randomly placed in 5 cages of 5 mice each. Mice were injected intraperitoneally with one of five levels of antibiotic [0 (control), 1, 2, 4 and 8 mg/ml]. Cottonseed oil was used as a carrier solution for the test substance. One mL samples were mixed before being injected using 1.0 ml syringes and 21G needles. Mice were observed continuously for 6 hours and any deaths or adverse symptoms recorded. This initial hour observation period was subsequently followed by another 18-hour monitoring period. […] This was also the case for mice injected solely with cottonseed oil. This is in direct contrast to weekly calibration assays using the toxic control saxitoxin dihydrochloride.

[5] = tested on: S. aureus OUM1126 Oxacillin resistant (MRSA); assay: Broth microdilution MIC (THB); type: cell-based; details: Staphylococcus aureus, three experiments
Method: (§1) Minimum inhibitory concentrations (MICs) were determined using a broth microdilution method. Bacterial isolates were inoculated into Todd-Hewitt broth (THB) and incubated at 37 C with shaking (200 rpm) for 18 h. Overnight cultures were diluted to an OD of 0.01 (at […], 1 cm light path) to give a final inoculum for broth microdilution of OD 0.005. Doubling dilutions of the test compounds were prepared in THB in microtitre plates. Tween 80 (Sigma) was added at a final concentration of 14 % to enhance solubility. The range of concentrations tested (with doubling dilutions) was 16 μg/mL to 0.063 μg/mL. Microtitre plates were incubated at 37 ° C. for 18 h with gentle shaking. Plates were read using a microplate reader (Multiskan Ascent, Labsystems), measuring the OD at 595 nm. Minimum bactericidal concentrations (MBCs) were determined by placing 5 μL of culture from wells without growth onto THB plates and incubating at 37° C. for 18 h. The MBC was the lowest concentration without growth from the drop of culture.

[6] = tested on: S. aureus AS92/349 Mupirocin resistant; assay: Broth microdilution MIC (THB); type: cell-based; details: three experiments
Method: as §1

[7] = tested on: S. aureus PC-3 Vancomycin/Oxacillin resistant (GISA); assay: Broth microdilution MIC (THB); type: cell-based; details: Staphylococcus aureus, three experiments
Method: as §1

[8] = tested on: S. aureus ST94/1208 Oxacillin/Gentamicin resistant (cMRSA); assay: Broth microdilution MIC (THB); type: cell-based; details: Staphylococcus aureus, three experiments
Method: as §1

[9] = tested on: E. faecium AR99/118 Ampicillin resistant; assay: Broth microdilution MIC (THB); type: cell-based; details: Enterococcus faecium, three experiments
Method: as §1

[10] = tested on: Enterococcus faecalis CD2-49 Gentamicin resistant; assay: Broth microdilution MIC (THB); type: cell-based; details: E. faecalis CD2-49 gentamicin resistant, three experiments
Method: as §1

[11] = tested on: Enterococcus faecalis 8A-25 Vancomycin resistant (VRE, vanA); assay: Broth microdilution MIC (THB); type: cell-based; details: E. faecalis 8A-25 vancomycin resistant (VRE, vanA), three experiments
Method: as §1

[12] = tested on: Enterococcus faecalis ATCC29212 Wild-type (fully susceptible); assay: Broth microdilution MIC (THB); type: cell-based; details: three experiments
Method: as §1

[13] = tested on: S. aureus ATCC25923 Wild-type (fully susceptible); assay: Broth microdilution MIC (THB); type: cell-based; details: three experiments
Method: as §1

[14] = tested on: S. aureus OUM1127 Erythromycin resistant; assay: Broth microdilution MIC (THB); type: cell-based; details: Staphylococcus aureus, three experiments
Method: as §1

[15] = tested on: Enterococcus and S. aureus strains tested in Table 2; assay: Bacteriostatic/bactericidal concentrations (MIC/MBC) over the strains of Table 2; type: cell-based; details: all strains of Table 2; read-out: Bacteriocidal concentration (MBC)
Method: as §1

[16] = tested on: listera monocytogenes; assay: MIC against Listeria, by similar methods; type: cell-based
[17] = MH broth, 37° C., read after 48 h and 72 h, University of Otago strain 1126, read-out: MRSA activity: upper and lower limits of Minimum Inhibitory Concentration

## 5-hydroxy-4-(1-oxopropylcyclohexl)-2,6,6-tetramethyl-4-cyclohexene-1,3-dione [Example 5]
[1]
  BS activity: width of zone of growth inhibition: 12 mm

## O=C(N[C@H](CO)[C@H](O)c1ccc([N+](=O)[O-])cc1)C(Cl)Cl [chloramphenicol, reference compound]
[1]; Bacillus subtilis, ATCC19659, positive control, 30 μg/disc, read-out: width of zone of inhibition
  zone of inhibition at 30 µg/disc: 12 mm

## CC1(C)C(=O)C(C2(C=O)CCCCC2)=C(O)C(C)(C)C1=O [Example 4, 5-hydroxy-4(1-oxomethylcyclohexyl)-2,2,6,6-tetramethyl-4-cyclohexene-1,3dione]
[1]; Bacillus subtilis, ATCC19659
  zone of inhibition at 60 µg/disc: 0 mm
other
  melting point: 47.8 °C
[2]; [17]
  MIC: 15.6 to 62.5 mg/L (≈ 53.4 to 214 µM)

## CCCCCCCCCCCCCCCC(=O)C1=C(O)C(C)(C)C(=O)C(C)(C)C1=O [Example 3, 5-hydroxy-4(1-oxohexadecyl)-2,2,6,6-tetramethyl-4-cyclohexene-1,3-dione]
[1]; Bacillus subtilis, ATCC19659
  zone of inhibition at 60 µg/disc: 0 mm
other
  melting point: 39 °C
[2]; [17]
  MIC: 2 to 7.8 mg/L (≈ 4.75 to 18.5 µM)

## CCCCCCCCCCCC(=O)C1=C(O)C(C)(C)C(=O)C(C)(CC=C(C)C)C1=O (centres unmarked) [Example 7, 5-hydroxy-4-(1-oxododecyl)-2-prenyl-2,6,6trimethyl-4-cyclohexene-1,3-dione]
[1]; Bacillus subtilis, ATCC19659
  zone of inhibition at 60 µg/disc: 0 mm
[2]; [17]
  MIC: 1 to 2 mg/L (≈ 2.39 to 4.78 µM)

## CN[C@H](CC(C)C)C(=O)N[C@H]1C(=O)N[C@@H](CC(N)=O)C(=O)N[C@H]2C(=O)N[C@H]3C(=O)N[C@H](C(=O)N[C@H](C(=O)O)c4cc(O)cc(O)c4-c4cc3ccc4O)[C@H](O)c3ccc(c(Cl)c3)Oc3cc2cc(c3O[C@@H]2O[C@H](CO)[C@@H](O)[C@H](O)[C@H]2O[C@H]2C[C@](C)(N)[C@H](O)[C@H](C)O2)Oc2ccc(cc2Cl)[C@H]1O [vancomycin, reference compound]
[2]; read-out: MRSA activity: upper and lower limits of Minimum Inhibitory Concentration
  MIC: 1.6 to 3.1 mg/L (≈ 1.1 to 2.14 µM)
[3]
  MIC: approximately 2 μg/ml

## CCCCCCCCCCCC(=O)C1=C(O)C(CC)(CC)C(=O)C(CC)(CC)C1=O [Example 6]
[1]
  BS activity: width of zone of growth inhibition: 0 mm

## CCCCCCCCCCCC(=O)C1=C(O)C(C)(C)C(=O)C(C)(C)C1=O [Example 1, 5-hydroxy-4-(1-oxododecyl)-2,2,6,6-tetramethyl-4-cyclohexene-1,3-dione]
[1]; Bacillus subtilis, ATCC19659
  zone of inhibition at 60 µg/disc: 3 mm
[2]; [17]
  MIC: 0.5 to 1 mg/L (≈ 1.37 to 2.74 µM)
[4]; ip in cottonseed oil, 1, 2, 4 and 8 mg/ml, 1 mL
  mouse deaths: no mouse deaths were recorded
[4]; listed as Compound I
  acute toxic effects: no toxic effects; also recorded: no adverse toxic symptoms
[4]; listed as Example I
  acute toxic effects: not toxic to mice
[5]
  MIC: 1 mg/L (≈ 2.74 µM)
[6]; Staphylococcus aureus, read-out: MIC
  MIC: 1 mg/L (≈ 2.74 µM)
[6]
  MIC: 2 mg/L (≈ 5.49 µM)
[7]
  MIC: 2 mg/L (≈ 5.49 µM)
[8]
  MIC: 1 mg/L (≈ 2.74 µM)
[9]
  MIC: 2 mg/L (≈ 5.49 µM)
[10]
  MIC: 0.5 mg/L (≈ 1.37 µM)
[10]; Enterococcus faecalis, read-out: MIC
  MIC: 1 mg/L (≈ 2.74 µM)
[11]
  MIC: 1 mg/L (≈ 2.74 µM)
[12]; E. faecalis ATCC29212 wild-type
  MIC: 0.5 mg/L (≈ 1.37 µM)
[12]; Enterococcus faecalis, ATCC29212, E. faecalis ATCC29212 wild-type, read-out: MIC
  MIC: 1 mg/L (≈ 2.74 µM)
[13]; S. aureus ATCC25923 wild-type
  MIC: 1 mg/L (≈ 2.74 µM)
[13]; Staphylococcus aureus, ATCC25923, S. aureus ATCC25923 wild-type, read-out: MIC
  MIC: 2 mg/L (≈ 5.49 µM)
[14]
  MIC: 1 mg/L (≈ 2.74 µM)
[15]
  MBC: ≥ 8 mg/L
[16]
  MIC: < 3.9 mg/L

## CCCCCCCCCC(=O)C1=C(O)C(C)(C)C(=O)C(C)(C)C1=O [Example 2, 5-hydroxy-4-(1-oxodecyl)-2,2,6,6,-tetramethyl-4-cyclohexene-1,3-dione]
[1]
  BS activity: width of zone of growth inhibition: 7 mm
